According to the NIST ThermoML archive (doi:10.1016/j.fluid.2009.11.030):

Experiment: excess molar enthalpy (molar enthalpy of mixing); xn = mol fraction of the nth substance listed
Conditions: 101.3 kPa, Liquid, Isothermal microcalorimeter

CCOC(=O)CC(=O)OCC [diethyl 1,3-propanedioate] + CCCCCCC
excess molar enthalpy [kcal/mol]
Conditions	288.15 K	298.15 K	313.15 K	328.15 K	338.15 K	348.15 K
x1 = 0.0503	–	–	–	0.0896	0.0877	0.0903
x1 = 0.0581	0.105	0.1	0.103	–	–	–
x1 = 0.1008	–	0.171	0.171	0.179	0.174	0.174
x1 = 0.1086	0.179	–	–	–	–	–
x1 = 0.1476	0.2254	0.232	0.238	0.2433	0.247	0.2424
x1 = 0.1984	0.2751	0.2921	0.3059	0.3133	0.3143	0.3074
x1 = 0.2495	0.3131	0.348	0.3619	0.3748	0.37	0.3647
x1 = 0.3007	0.3537	0.3867	0.413	0.4221	0.4283	0.4125
x1 = 0.3481	0.3659	0.4142	0.4436	0.4587	0.4529	0.4517
x1 = 0.3997	0.3786	0.4269	0.4622	0.4828	0.4842	0.4742
x1 = 0.4474	0.381	0.4338	0.4689	0.4883	0.4943	0.4876
x1 = 0.4993	0.3826	0.4348	0.472	0.4897	0.4971	0.4912
x1 = 0.5474	0.3815	0.4326	0.4656	0.4837	0.4909	0.4811
x1 = 0.5997	0.3755	0.4202	0.4515	0.467	0.478	0.4622
x1 = 0.6481	0.3626	0.4054	0.4331	0.4431	0.4503	0.4398
x1 = 0.7008	0.3466	0.374	0.3991	0.4128	0.4149	0.3999
x1 = 0.7495	0.3231	0.3446	0.3576	0.3693	0.3678	0.3609
x1 = 0.7985	0.2868	0.3002	0.3011	0.3222	0.3181	0.3105
x1 = 0.8476	0.237	0.2443	0.2459	0.254	0.257	0.246
x1 = 0.9009	0.167	0.167	0.165	0.18	0.178	0.17
x1 = 0.9504	0.0887	0.0891	0.0887	0.104	0.0939	0.0875

CCOC(=O)CC(=O)OCC [diethyl 1,3-propanedioate] + CCCCCO
excess molar enthalpy [kcal/mol]
Conditions	288.15 K	298.15 K	313.15 K	328.15 K	338.15 K	348.15 K
x1 = 0.0494	–	0.146	–	–	–	–
x1 = 0.0583	0.153	–	0.179	0.171	0.185	0.195
x1 = 0.1007	0.235	0.258	0.282	0.292	0.294	0.301
x1 = 0.1478	0.31	0.338	0.387	0.391	0.3934	0.3987
x1 = 0.2	0.3731	0.4132	0.4584	0.4859	0.4897	0.49
x1 = 0.2474	0.4204	0.4646	0.5196	0.5471	0.5504	0.5566
x1 = 0.3001	0.4622	0.5153	0.5793	0.6047	0.6154	0.6068
x1 = 0.3474	0.4885	0.5428	0.6142	0.6424	0.6482	0.6441
x1 = 0.4003	0.512	0.5712	0.6389	0.6666	0.6707	0.6764
x1 = 0.4472	0.5203	0.5844	0.6465	0.6793	0.68	0.6816
x1 = 0.4997	0.5284	0.5896	0.6467	0.6819	0.6826	0.6781
x1 = 0.55	0.528	0.5815	0.6405	0.669	0.6692	0.6656
x1 = 0.5975	0.516	0.5674	0.6209	0.6456	0.6439	0.6405
x1 = 0.6466	0.4945	0.543	0.5906	0.6121	0.5973	0.5992
x1 = 0.6973	0.4653	0.5067	0.5447	0.5609	0.5569	0.5497
x1 = 0.7497	0.4199	0.4572	0.4857	0.4974	0.4919	0.4826
x1 = 0.7988	0.3709	0.3982	0.4185	0.4235	0.4218	0.407
x1 = 0.8494	0.3	0.3198	0.332	0.334	0.331	0.315
x1 = 0.9017	0.212	0.223	0.226	0.232	0.224	0.217
x1 = 0.9501	0.11	0.12	0.121	0.121	0.114	0.109
